The results in this text go back to PubChem BioAssay (NCI).

Each structure is given as a SMILES string. Several values for one entry are separate records, joined by “and”; a condition that tells them apart may be missing. Identical values can stand only once.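 How tested: cells in 96-well plates exposed to compound for 48 hours at five concentrations. GI50 is the concentration that inhibits growth by half. TGI: total growth inhibition.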 Where only a bound is given, the exact number is not on record here.

For one experiment, the system named is SF-295 CNS. Put plainly: DTP human tumour cell line panel, 48 h.
Regarding `Cn1cc(NC(=O)c2cc(NC(=O)CCCCCCCCCCC(=O)Nc3cc(C(=O)Nc4cc(C(=O)NCCC(=N)N)n(C)c4)n(C)c3)cn2C)cc1C(=O)NCCC(=N)N`, the TGI was above 100 µM.
Regarding `C1COCCN1.C1COCCN1.N.N.[Cl-].[Pt+2]`, the GI50 is above 100 µM and the TGI was above 100 µM.
On to `COC(=O)C(c1[nH]nc2ccccc12)C(C(=O)OC)c1[nH]nc2ccccc12` (stereo not drawn), for which the TGI was above 100 µM.
Consider `COc1ccc2cc1Oc1ccc(cc1)C[C@H]1c3cc(c(OC)cc3CCN1C)Oc1c(OC)c(OC)cc3c1[C@H](C2)N(C)CC3`, for which the GI50 was 12.8 µM; the TGI is 16.3 µM and 28.9 µM and > 100 µM.
On to `O=c1[nH]c2ccccc2cc1C(Cl)=C(Cl)Cl`, for which the TGI is above 100 µM.
The same measure, in the same setting: in the case of `O=[N+]([O-])[C@@H]1C2C=CC(C2)[C@H]1Cl` (stereo partly drawn) it was above 100 µM.
On the same count and under the same terms, the result for `N#CC1(c2nc3ccccc3o2)C(=O)C(=O)N(C2C3CC4CC(C3)CC2C4)C(=O)C1=O` (stereo not drawn) reads above 100 µM; that for `CCOC(=O)C1(CC)CCCCC(=O)N1` (stereo not drawn), above 100 µM; that for `C=CC1=CSNN1`, above 100 µM.
Same read-out and setting: the result for `O=C(C#Cc1c[nH]c(=O)[nH]c1=O)c1ccccc1Cl` reads above 100 µM; that for `CCCCCCCCCCCCCCCC(=O)NCC(COP(=O)([O-])OCC[N+](C)(C)C)OCC` (stereo not drawn), 18.6 µM.
With `O=c1cc(-c2cccc(F)c2)[nH]c2cc3c(cc12)OCO3`, the GI50 was 0.141 µM.
With `O=C1NC2(CCCC2)C(=O)C12CCCC2`, the TGI is above 100 µM.
Still for that read-out and setting: the result for `O=C1CCCN(c2ccccc2)N1` reads above 100 µM.
For `CC(=O)Nc1cccc(-n2c(=O)n(C3CC3)c(=O)c3c(Nc4ccc(I)cc4F)n(C)c(=O)c(C)c32)c1`, the GI50 is 7.21 µM and > 10 µM; the TGI was 59.4 µM and > 10 µM.
Consider `Fc1cccc(COc2ccc(Nc3ncncc3C#Cc3ccccc3)cc2Cl)c1`, for which the GI50 is above 25 µM and the TGI was above 25 µM.
`CCOC(=O)C1=C(C)Nc2ccccc2S1` showed a TGI above 100 µM.
`Nc1n[nH]c2ccc([C@@H]3Nc4ccc5[nH]ncc5c4[C@H]4[C@H]5CCC(C5)[C@H]43)cc12`: the GI50 is 0.302 µM and the TGI is 3.47 µM.
For `CCOC(=O)CC1=Nc2ccccc2SC1`, the TGI was above 100 µM.

In a further experiment the test system is HCT-116 colon. Description: DTP human tumour cell line panel, 48 h.
`Cn1cc(NC(=O)c2cc(NC(=O)CCCCCCCCCCC(=O)Nc3cc(C(=O)Nc4cc(C(=O)NCCC(=N)N)n(C)c4)n(C)c3)cn2C)cc1C(=O)NCCC(=N)N` came in with a TGI above 100 µM.
With `C1COCCN1.C1COCCN1.N.N.[Cl-].[Pt+2]`, the GI50 was above 100 µM and the TGI was above 100 µM.
Take `Cc1ccccc1C(C#N)C(=O)C(=O)Nc1nc([N+](=O)[O-])cs1` (stereo not drawn): the TGI is above 100 µM.
Same read-out and setting: in the case of `COC(=O)C(c1[nH]nc2ccccc12)C(C(=O)OC)c1[nH]nc2ccccc12` (stereo not drawn) it was above 100 µM.
As for `COc1ccc2cc1Oc1ccc(cc1)C[C@H]1c3cc(c(OC)cc3CCN1C)Oc1c(OC)c(OC)cc3c1[C@H](C2)N(C)CC3`, the GI50 is 3.8 µM; the TGI was 11.1 µM and 14.9 µM and > 100 µM.
Consider `O=c1[nH]c2ccccc2cc1C(Cl)=C(Cl)Cl`, for which the TGI was above 100 µM.
Still for that read-out and setting: the result for `O=[N+]([O-])[C@@H]1C2C=CC(C2)[C@H]1Cl` (stereo partly drawn) reads above 100 µM; that for `N#CC1(c2nc3ccccc3o2)C(=O)C(=O)N(C2C3CC4CC(C3)CC2C4)C(=O)C1=O` (stereo not drawn), above 100 µM; that for `C=CC1=CSNN1`, above 100 µM.
In turn, `O=C(C#Cc1c[nH]c(=O)[nH]c1=O)c1ccccc1Cl` gave a TGI of 30.9 µM.
Still for that read-out and setting: the result for `CCCCCCCCCCCCCCCC(=O)NCC(COP(=O)([O-])OCC[N+](C)(C)C)OCC` (stereo not drawn) reads 23.9 µM.
For `O=c1cc(-c2cccc(F)c2)[nH]c2cc3c(cc12)OCO3`, the GI50 was 0.22 µM; the TGI was 2.91 µM and 15.7 µM.
`O=C1NC2(CCCC2)C(=O)C12CCCC2` displayed a TGI above 100 µM.
The same measure, in the same setting: in the case of `O=C1CCCN(c2ccccc2)N1` it was above 100 µM.
As for `CC(=O)Nc1cccc(-n2c(=O)n(C3CC3)c(=O)c3c(Nc4ccc(I)cc4F)n(C)c(=O)c(C)c32)c1`, the GI50 was < 0.01 µM and 0.00986 µM; the TGI was 12.5 µM and > 10 µM.
Regarding `Fc1cccc(COc2ccc(Nc3ncncc3C#Cc3ccccc3)cc2Cl)c1`, the GI50 was 24.4 µM and the TGI is above 25 µM.
As for `CCOC(=O)C1=C(C)Nc2ccccc2S1`, the TGI is above 100 µM.
Regarding `Nc1n[nH]c2ccc([C@@H]3Nc4ccc5[nH]ncc5c4[C@H]4[C@H]5CCC(C5)[C@H]43)cc12`, the concentration for 50% growth inhibition (GI50) is 0.404 µM and the TGI was above 100 µM.
Turning to `CCOC(=O)CC1=Nc2ccccc2SC1`, the TGI was above 100 µM.

The next experiment relates to LXFL 529 NSCLC. Put plainly: DTP human tumour cell line panel, 48 h.
In the case of `Cn1cc(NC(=O)c2cc(NC(=O)CCCCCCCCCCC(=O)Nc3cc(C(=O)Nc4cc(C(=O)NCCC(=N)N)n(C)c4)n(C)c3)cn2C)cc1C(=O)NCCC(=N)N`, the TGI is above 100 µM.
Take `C1COCCN1.C1COCCN1.N.N.[Cl-].[Pt+2]`: the GI50 was above 100 µM and the TGI is above 100 µM.
In turn, `Cc1ccccc1C(C#N)C(=O)C(=O)Nc1nc([N+](=O)[O-])cs1` (stereo not drawn) showed a TGI above 100 µM.
Molecule `COC(=O)C(c1[nH]nc2ccccc12)C(C(=O)OC)c1[nH]nc2ccccc12` (stereo not drawn) had a TGI above 100 µM.
The same measure, in the same setting: the result for `O=c1[nH]c2ccccc2cc1C(Cl)=C(Cl)Cl` reads above 100 µM; that for `O=[N+]([O-])[C@@H]1C2C=CC(C2)[C@H]1Cl` (stereo partly drawn), above 100 µM; that for `N#CC1(c2nc3ccccc3o2)C(=O)C(=O)N(C2C3CC4CC(C3)CC2C4)C(=O)C1=O` (stereo not drawn), above 100 µM.
Turning to `CCOC(=O)C1(CC)CCCCC(=O)N1` (stereo not drawn), the total growth inhibition concentration (TGI) was above 100 µM.
On the same count and under the same terms, the result for `C=CC1=CSNN1` reads above 100 µM; that for `CCCCCCCCCCCCCCCC(=O)NCC(COP(=O)([O-])OCC[N+](C)(C)C)OCC` (stereo not drawn), 27.8 µM.
On the same count and under the same terms, the result for `O=c1cc(-c2cccc(F)c2)[nH]c2cc3c(cc12)OCO3` reads 75 µM; that for `O=C1NC2(CCCC2)C(=O)C12CCCC2`, above 100 µM.
On the same count and under the same terms, in the case of `O=C1CCCN(c2ccccc2)N1` it was above 100 µM.
Regarding `CCOC(=O)C1=C(C)Nc2ccccc2S1`, the TGI is above 100 µM.
On to `CCOC(=O)CC1=Nc2ccccc2SC1`, for which the TGI was above 100 µM.

The subject of a further experiment is SNB-75 CNS. Put plainly: DTP human tumour cell line panel, 48 h.
For the molecule `Cn1cc(NC(=O)c2cc(NC(=O)CCCCCCCCCCC(=O)Nc3cc(C(=O)Nc4cc(C(=O)NCCC(=N)N)n(C)c4)n(C)c3)cn2C)cc1C(=O)NCCC(=N)N`, the TGI was above 100 µM.
With `C1COCCN1.C1COCCN1.N.N.[Cl-].[Pt+2]`, the GI50 is above 100 µM and the TGI is above 100 µM.
`Cc1ccccc1C(C#N)C(=O)C(=O)Nc1nc([N+](=O)[O-])cs1` (stereo not drawn): the TGI is above 100 µM.
Still for that read-out and setting: in the case of `COC(=O)C(c1[nH]nc2ccccc12)C(C(=O)OC)c1[nH]nc2ccccc12` (stereo not drawn) it was above 100 µM.
Consider `COc1ccc2cc1Oc1ccc(cc1)C[C@H]1c3cc(c(OC)cc3CCN1C)Oc1c(OC)c(OC)cc3c1[C@H](C2)N(C)CC3`, for which the GI50 is 2.77 µM; the TGI was 13.4 µM and 10.3 µM and > 100 µM.
`O=c1[nH]c2ccccc2cc1C(Cl)=C(Cl)Cl` showed a TGI above 100 µM.
The same measure, in the same setting: in the case of `O=[N+]([O-])[C@@H]1C2C=CC(C2)[C@H]1Cl` (stereo partly drawn) it was above 100 µM.
Same read-out and setting: in the case of `N#CC1(c2nc3ccccc3o2)C(=O)C(=O)N(C2C3CC4CC(C3)CC2C4)C(=O)C1=O` (stereo not drawn) it was above 100 µM.
Still for that read-out and setting: the result for `C=CC1=CSNN1` reads above 100 µM.
`O=C(C#Cc1c[nH]c(=O)[nH]c1=O)c1ccccc1Cl` displayed a TGI of 39.6 µM.
Same read-out and setting: in the case of `CCCCCCCCCCCCCCCC(=O)NCC(COP(=O)([O-])OCC[N+](C)(C)C)OCC` (stereo not drawn) it was 23 µM.
On the same count and under the same terms, the result for `O=C1NC2(CCCC2)C(=O)C12CCCC2` reads above 100 µM.
The same measure, in the same setting: the result for `O=C1CCCN(c2ccccc2)N1` reads above 100 µM.
On to `CC(=O)Nc1cccc(-n2c(=O)n(C3CC3)c(=O)c3c(Nc4ccc(I)cc4F)n(C)c(=O)c(C)c32)c1`, for which the GI50 is 3.2 µM and > 2.79 µM; the TGI was above 55.2 µM.
As for `Fc1cccc(COc2ccc(Nc3ncncc3C#Cc3ccccc3)cc2Cl)c1`, the GI50 was above 25 µM and the TGI was above 25 µM.
In turn, `CCOC(=O)C1=C(C)Nc2ccccc2S1` returned a TGI above 100 µM.
`Nc1n[nH]c2ccc([C@@H]3Nc4ccc5[nH]ncc5c4[C@H]4[C@H]5CCC(C5)[C@H]43)cc12`: the GI50 is 0.16 µM and the TGI was determined as 11.3 µM.
For `CCOC(=O)CC1=Nc2ccccc2SC1`, the TGI is above 100 µM.

The next experiment relates to RPMI-8226 leukemia. Put plainly: DTP human tumour cell line panel, 48 h.
Molecule `COC(=O)C(c1[nH]nc2ccccc12)C(C(=O)OC)c1[nH]nc2ccccc12` (stereo not drawn) yielded a TGI of 50.4 µM.
For the molecule `COc1ccc2cc1Oc1ccc(cc1)C[C@H]1c3cc(c(OC)cc3CCN1C)Oc1c(OC)c(OC)cc3c1[C@H](C2)N(C)CC3`, the GI50 is 1.92 µM; the TGI was 20.3 µM and 5.21 µM.
On to `O=c1[nH]c2ccccc2cc1C(Cl)=C(Cl)Cl`, for which the TGI is above 100 µM.
On the same count and under the same terms, in the case of `O=[N+]([O-])[C@@H]1C2C=CC(C2)[C@H]1Cl` (stereo partly drawn) it was above 100 µM; in that of `N#CC1(c2nc3ccccc3o2)C(=O)C(=O)N(C2C3CC4CC(C3)CC2C4)C(=O)C1=O` (stereo not drawn), above 100 µM.
On the same count and under the same terms, the result for `C=CC1=CSNN1` reads above 100 µM.
In the case of `O=C(C#Cc1c[nH]c(=O)[nH]c1=O)c1ccccc1Cl`, the TGI is 71.7 µM.
As to `CCCCCCCCCCCCCCCC(=O)NCC(COP(=O)([O-])OCC[N+](C)(C)C)OCC` (stereo not drawn), the concentration for total growth inhibition (TGI) is 9.76 µM.
Consider `O=C1NC2(CCCC2)C(=O)C12CCCC2`, for which the TGI was above 100 µM.
The same measure, in the same setting: in the case of `O=C1CCCN(c2ccccc2)N1` it was above 100 µM.
With `CC(=O)Nc1cccc(-n2c(=O)n(C3CC3)c(=O)c3c(Nc4ccc(I)cc4F)n(C)c(=O)c(C)c32)c1`, the GI50 was 5.35 µM and > 4.38 µM; the TGI is above 100 µM.
In the case of `Fc1cccc(COc2ccc(Nc3ncncc3C#Cc3ccccc3)cc2Cl)c1`, the GI50 is above 25 µM and the TGI is above 25 µM.
